Data set [1] concerns the target T1, indoleamine 2,3-dioxygenase (IDO) in HeLa cells (Homo sapiens, UniProt P14902).
T1 construct: Interferon γ induced the expression of IDO in HeLa cells; host or cells: HeLa cells induced with interferon γ
The data set is described as follows: Cell model test for IDO activity inhibition (interferon γ induced HeLa cells). In kind it is cell-based. Conditions: interferon γ 50 ng/mL, 24 hours, read-out: Cytological Test IC50. How it is done:
Interferon γ induced the expression of IDO in HeLa cells. This model was used to test the inhibitory activity of compounds on indoleamine 2,3-dioxygenase (IDO). The culture medium of HeLa cells (ATCC) was phenol red-free RPMI-1640 containing 100 μM L-tryptophan. The stock solution of the test compound was prepared to 10 mM with dimethyl sulfoxide, and diluted with dimethyl sulfoxide to the highest concentration of the test during the experiment, then diluted in three-fold gradient, and generally diluted to 8 to 10 concentration points. Duplicate wells were set for each concentration point. The final concentration of DMSO was 0.5%, and internal reference compound was included in each experiment.
The procedure of the experiment was as follows: 20,000 HeLa cells (ATCC) per well were added on a 96-well culture plate and incubated overnight. After 24 hours, interferon γ (final concentration of 50 ng/mL) and different concentrations of the test compound and the internal reference compound were added to the incubated cells. After 24 hours, 140 μL of the supernatant/well was transferred to a new 96-well plate, and 10 μL of 6.1 N trichloroacetic acid was added to each well. The plate was incubated for 30 minutes at 50° C. to hydrolyze N-formyl-kynurenine to kynurenine. The reaction mixture was centrifuged at 2500 rpm for 10 minutes to remove the precipitate, and the supernatant (100 μL) was transferred to another new 96-well plate. 100 μL of 2% (W/V) p-(dimethylamino)benzaldehyde (p-DMBA)/glacial acetic acid solution was added to each well. The absorbance at 490 nm was read on a BioTek Synergy H1 microplate reader […].
The original data of the absorbance at 490 nm read on a microplate reader were analyzed. The inhibition of IDO enzyme activity was calculated at different concentrations of the test compound. The half-inhibitory concentration IC50 value of the compound was obtained by non-linear fitting analysis of inhibition percentage data by GraphPad Prism software.

Data set [2] concerns mouse pancreatic cancer cell line PAN02. The data set can be described thus: Anti-tumor effect in PAN02 tumor-bearing mouse model. In kind it is in vivo, mouse (C57/BL6). As to conditions: PAN02 tumor-bearing mice, 50 mg/kg intragastric twice a day. From the text:
The invention used the PAN02 tumor-bearing mouse model to test the anti-tumor effect of the example compounds. The PAN02 tumor-bearing mouse model was the mouse pancreatic cancer cell line PAN02 purchased from Guangzhou Ginnio Biological Technology Co., Ltd., and the culture medium used was DMEM containing 10% fetal bovine serum. The mouse strain used for tumor-bearing was C57/BL6 purchased from Shanghai Slac Laboratory Animal Co., Ltd. At the time of implanting, the PAN02 cells in the logarithmic growth phase were collected, and mixed with the BDMatrigel matrix gel that reduced the growth factor to 50 million cells/ml. Each mouse was implanted subcutaneously with 100 μL of 5 million cells. When the tumor grew to about 100 cubic millimeters, animals were randomly divided into groups with 8 animals per group. Drug administration was started (D0).
Mode of administration: intragastrical administration, twice a day.
Formulation prescription: 3% two methyl acetamide and 20% hydroxypropyl-β-cyclodextrin. • Administration period and tumor measurement: The administration period was 13 days. The tumor volume was measured, the mice were weighed, and the data were recorded, 3 times a week. The calculation formula of tumor volume (V) is: V=½a×b2, where a and b represent length and width respectively. The calculation formula of T/C is: T/C (%)=100×ΔT/ΔC. Tumor inhibition rate (%)=1−T/C (%). • Experimental results: the anti-tumor effect of the compound of Example 15 in PAN02 tumor-bearing mouse model is shown in the following table.

Data set [3] can be described thus: Pharmacokinetic (PK) analysis of rat plasma. In kind it is in vivo. Conditions: Sprague-Dawley, po, 20 mg/kg, SD rats, single gavage, 20 mg/10 mL/kg. How it is done:
The pharmacokinetics test of the test compound was performed with Sprague Dawley (SD) rats (Shanghai Slac Laboratory Animal Co., LTD).
Mode of administration: Single gavage.
U Dosage: 20 mg/10 mL/kg.
Formulation prescription: 3% dimethylacetamide and 20% hydroxypropyl-3-cyclodextrin.
Sampling points: before administration and 15 minutes, 0.5, 1, 2, 4, 6, 8 and 24 hours after administration.
Plasma sampling and sample processing: • 1) 0.2 ml of intravenous blood was collected and placed in an EDTA-2K tube. The blood was centrifuged at 4° C. for 5 minutes at 6,000 rpm to separate the plasma, which was stored at −80° C. • 2) 160 μL of acetonitrile were added to 40 μL of plasma sample, standard, and internal reference. The mixture was shaken vertically for 3 minutes, and centrifuged at 4000 rpm for 10 minutes. 100 μL of the supernatant were taken, and then added with 100 μL of deionized water and mixed well. 100 μL of the resulting solution was taken for LC/MS/MS analysis. The instrument for plasma LC/MS/MS analysis was AB Sciex API 4000.
Liquid Chromatography Analysis: • Liquid chromatography conditions: Shimadzu LC-20AD pump • Chromatographic column: phenomenex Gemiu 5 μm C18 50×4.6 mm • Mobile phase: solution A was 0.1% formic acid solution, and solution B was acetonitrile • Flow rate: 0.8 mL/min • Elution time: 0-3.01 minutes and the eluent was as follows:
• Mass spectrometry analysis: setup conditions of mass spectrometer: positive ion electrospray ionization (ESI) mode. • Experimental results: the main parameters of pharmacokinetics were calculated by WinNonlin 6.1 and the experimental results are shown in the following table: […]

T1 sequence (P14902 whole entry): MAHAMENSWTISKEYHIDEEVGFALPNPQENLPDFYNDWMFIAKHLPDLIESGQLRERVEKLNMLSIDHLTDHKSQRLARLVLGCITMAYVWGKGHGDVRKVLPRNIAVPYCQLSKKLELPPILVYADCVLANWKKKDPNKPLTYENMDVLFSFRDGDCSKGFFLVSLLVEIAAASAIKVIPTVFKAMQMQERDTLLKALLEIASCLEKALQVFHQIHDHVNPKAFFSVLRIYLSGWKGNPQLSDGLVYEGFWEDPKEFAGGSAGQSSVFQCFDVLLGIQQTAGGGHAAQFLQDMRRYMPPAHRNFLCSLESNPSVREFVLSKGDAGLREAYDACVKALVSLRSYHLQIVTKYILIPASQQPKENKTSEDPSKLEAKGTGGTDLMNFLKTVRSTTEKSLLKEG

With `CS(=O)(CCNc1nonc1/C(=N/O)Nc1ccc(F)c(Br)c1)=NS(=O)(=O)C1CC1` (stereo not drawn) [Example 15, (Z)—N-(3-bromo-4-fluorophenyl)-4-((2-(N-(cyclopropylsulfonyl)-S-methylsulfonimidoyl)ethyl)amino)-N′-hydroxy-1,2,5-oxadiazole-3-carboximidamide], the IC50 in data set [1] is 10 nM. For the same compound, the “Average tumor volume (mm^3 ± SEM) D0” value in data set [2] (D0 (start of administration)) is on record as 105.0 ± 3.4 mm^3. In addition, in data set [2] (D12), the “Average tumor volume (mm^3 ± SEM) D12” value was 163.3 ± 11.0 mm^3 and the “T/C (%) D12” value is on record as 25.2%. In addition, in data set [2] (D12, 50 mg/kg), the “Tumor inhibition rate (%) D12” value worked out at 74.8%. Further, in data set [3], the AUC(0-inf) stood at 5180 ng·h/mL, the peak level (Cmax) was 1350 ng/mL, the Tmax came out at 0.5 h and the half-life was 3.54 h.

As a reminder, the IC50 is the concentration that gives 50% inhibition. In general, AUC(0-inf) refers to total exposure, with the tail of the curve extrapolated. A lower AUC(0-inf) goes with low exposure. As a reminder, the Cmax is the maximum level reached in the sampled fluid or tissue. As usually defined, the Tmax is the time from dosing to the highest level. As usually defined, the half-life is the time needed for the level to fall by half in the phase considered. Low values mean fast loss, high ones slow loss.

(Values after patent US20190040025A1, “INDOLEAMINE 2,3-DIOXYGENASE INHIBITOR, PREPARATION METHOD THEREFOR, AND APPLICATION” (Jiangsu Hansoh Pharmaceutical Group Co., Ltd., priority 2016, published 2019).)
